≈ marks a conversion by molar mass, not a printed value. Where two headings read alike, the source gives them in different places.
Tests used:
rat mast cells [ラット肥満細胞] = experiment: Histamine release inhibition from rat mast cells (compound 48/80 induced); assay type: cell-based; conditions: for IC50: Rattus norvegicus, Mast cell, 10 min, read-out: IC50 (50% inhibition rate), histamine release
[1] = test system: cell suspension prepared as in Example 2 (rat mast cells) [ラット肥満細胞]; experiment: Cytotoxicity test (trypan blue cell viability); assay type: cell-based; conditions: 37°C, 0, 10, 20, 60, 120 min
[2] = test system: mouse ear edema model [マウス耳介浮腫モデル]; experiment: Anaphylaxis inhibition in mouse ear edema model; assay type: in vivo; conditions: C3H/Hecrj mice, female; oral; 0.8, 0.16, 0.032, 0.0064 mg/kg; 6 doses over 5 days; anti-TNP-IgE, picryl chloride (Fig. 4)
[3] = test system: rat macrophages [ラットマクロファージ]; experiment: Leukotriene B4 release inhibition from rat macrophages (opsonized zymosan induced); assay type: cell-based; conditions: sample added 30 min before zymosan, LTB4 by ELISA (Table 2)

| SMILES | IC50 (rat mast cells [ラット肥満細胞]; compound 48/80 (5 μg/ml) as inducer, 37°C, sample solutions 25-250 μg/ml) [µg/mL] | histamine release inhibitory activity (in words) (rat mast cells [ラット肥満細胞]; compound 48/80 as inducer, compared with ketotifen fumarate (Table 1)) | histamine release inhibitory activity relative to ketotifen fumarate (fold) (rat mast cells [ラット肥満細胞]; from IC50 values, versus ketotifen fumarate) | cytotoxicity (cell viability, number of viable cells) [1] | anaphylaxis inhibitory activity (ear edema) [2] | leukotriene release inhibitory activity [3] | IC50 (rat mast cells [ラット肥満細胞]) [µg/mL] |
| --- | --- | --- | --- | --- | --- | --- | --- |
| O=C(/C=C/c1ccc(O)cc1)c1c(O)cc(O)cc1O [ナリンゲニンカルコン, 2’4’6’4’−Tetrahydroxychalcone] | ~70 (≈ 257 µM) | 公知のヒスタミン遊離抑制剤であるフマル酸ケトチフェンよりも強い、ヒスタミン遊離抑制活性を示した | ~3.5 倍 (fold) | 細胞毒性は見られなかった | 容量依存的なアナフィラキシー抑制活性を示した | 用量依存的に、ロイコトリエン遊離抑制活性を示した |  |
| CN1CCC(=C2c3ccccc3CC(=O)c3sccc32)CC1 [フマル酸ケトチフェン, reference compound] |  |  |  |  |  |  | ~250 (≈ 808 µM) |
